Measurements taken from article PMC7558282, “The Anticancer Activity for the Bumetanide-Based Analogs via Targeting the Tumor-Associated Membrane-Bound Human Carbonic Anhydrase-IX Enzyme” (Pharmaceuticals, 2020).

Test system: A-498 cells
Assay: Annexin V/PI apoptotic assay in A-498
Assay type: cell-based, human
Conditions: 6 µM, 48 h; control 1.3%
Method: The efficient antiproliferative activity of compound 9c on the kidney carcinoma A-498 cell line (Table 2) prompted a further investigation of its mechanistic growth inhibitory action. Thus, the impact of bumetanide analog 9c at 6 µM for 48 h on cell cycle distribution and induction of apoptosis in A-498 cells was next explored. […] Analysis of apoptosis was performed to determine the mode of cell death induced by 9c in A-498 cells. Compound 9c induced both early and late apoptosis in A-498 cells at 6 µM when compared to the untreated control cells (p < 0.01 and p < 0.001, respectively) (Figure 5A). […]
Figure 5 Compound 9c potently induces apoptosis in kidney carcinoma cell line A-498 cells (Annexin V/PI FACS). (A) Effect of compound 9c in A-498 cells analyzed by flow cytometry after double staining of the cells with Annexin-V-FITC and PI. […] (B) Quantitative analysis of apoptosis. […]
A-498 Cells were seeded at a density of 1 × 10^5 cells/well in 24-well plates and treated with compound 9c (6 µM) for 48 h. […] The DNA content of cells (10,000 cells/experimental group) was analyzed by flow cytometer at 488 nm using a FACSCalibur flow cytometer (BD Biosciences, San Jose, CA, USA) and all data were recorded and analyzed using the CellQuest Software (Becton-Dickinson Biosciences, San Jose, CA, USA). […]

Q: Which “Annexin V-staining positive cells (total apoptotic cells)” value does the source give for `CCCCNc1cc(-c2n[nH]c(=S)n2-c2ccc(Br)cc2)cc(S(N)(=O)=O)c1Oc1ccccc1` [Compound 9c] here?
A: 25.5%
